Data on four compounds can be found in patent US7214495B2, “Screening method” (Takeda Pharmaceutical Company Limited, priority 2002, dated 2007).

The test system of data set [1] is p44/42 MAP kinase in MIN6 cells. In words: MAP kinase activation (western blot) in MIN6 cells. The class given is cell-based, mouse. The settings on record: PD98059 50 μM during preincubation/incubation; 5 minutes. The protocol: The medium used was 4.5 g/l of glucose-containing Dulbecco's Modified Eagle Medium (DMEM, Invitrogen, Inc.) supplemented with 15% fetal calf serum (ThermoTrace, Inc.), 5.5 μM 2-mercaptethanol (Invitrogen, Inc.), 20 mM HEPES pH 7.3, 100 U/ml penicillin and 100 μg/ml streptomycin. The mouse pancreatic β cell line MIN6 cells were plated in a 12-well plate at a density of 2×10^5/well and incubated overnight. On the following morning, the medium was exchanged and incubation was continued overnight. The medium was again exchanged on the following morning. After incubation for 3 hours, preincubation was carried out in 22 mM glucose-containing KRBH for an hour. Various fatty acids were dissolved in KRBH (22 mM glucose) at a density of 10 μM followed by incubation for 2.5 minutes (or 5 minutes). MAPK inhibitor (PD98059) was added to KRBH in a concentration of 50 μM during the preincubation/incubation. After lysis/extraction in a sample buffer (TEFCO, Inc.), the cells were separated on SDS-PAGE and analyzed by western blotting using PhosphoPlus p44/42 MAP kinase (Thr202/Tyr204) Antibody Kit (Cell Signaling Technology, Inc.). […] The activation of MAPK occurred by the fatty acids showing the agonist activity in MIN6 as well as in the GPR40-expressed CHO cells. Thus, it was strongly supported that GPR40 would take part in MIN6 stimulation of fatty acids at least in part.
A general note: Immunoblotting shows a protein as a band on a membrane.

For data set [2], the system named is mouse insulinoma MIN6 cells. In words: Insulin secretion from MIN6 cells with free fatty acid-BSA mixture (RIA). It counts as cell-based. The settings on record: 300 μM to 1000 μM; fatty acid-BSA 4:1; 11 mM glucose; 90 (or 60) minutes. Here is the method: The MIN6 cells were cultured in DMEM (high glucose, Invitrogen) containing 15% FCS (Trace Scientific Ltd.), 55 μM 2-mercaptoethanol, 100 U/ml penicillin and 100 μg/ml streptomycin, unless otherwise indicated. MIN6 cells were plated in a 96-well plate in 10^5 cells/well, followed by incubation at 37° C. for 3 days in a CO2 incubator adjusted to a concentration of 5% CO2. The medium was replaced by RPMI1640 (glucose free, Invitrogen) containing 10% FCS (Trace Scientific Ltd.), 5.5 mM glucose, 100 U/ml penicillin and 100 μg/ml streptomycin, followed by incubation for further 24 hours. After the medium was removed by suction, a solution mixture of free fatty acid-bovine serum albumin (BSA) (in a molar ratio of 4:1) diluted with RPMI1640 (glucose free, Invitrogen) containing 10% FCS (Trace Scientific Ltd.), 11 mM glucose, 100 U/ml penicillin and 100 μg/ml streptomycin was added to the cells, followed by reacting in a CO2 incubator adjusted to a 5% CO2 concentration at 37° C. for 90 minutes (or 60 minutes). After the reaction, the 96-well plate was centrifuged at 1500 rpm for 5 minutes and the culture supernatant was then recovered. The amount of insulin secreted into the culture supernatant was determined by radioimmunoassay (RIA) using the rat insulin RIA system (Amersham Pharmacia).

Another data set deals with T1, human GPR40 (Homo sapiens, UniProt O14842).
T1 construct: The resulting fragment (ca. 1 kb) was introduced into vector pAKKO-111, which was used for transfection of CHO cells; expressed in transfected cells
The experiment in a line: EC50 by FLIPR calcium assay in CHO cells stably expressing human GPR40. The class given is cell-based. As to conditions: intracellular calcium, FLIPR, stable CHO line; read-out: EC50 Human GPR40. The protocol: (§1) For determination of EC50 values, the CHO cell lines in which human-, mouse- and rat-derived GPR40 was stably expressed were used. Unless otherwise indicated, these CHO cell lines were incubated in α-MEM medium (Invitrogen) supplemented with 10% fetal calf serum (Invitrogen).
(§2) On the day before assay, the cells incubated to almost confluent stage were rinsed with PBS (Invitrogen), then scraped in 0.05% trypsin-EDTA solution (Invitrogen) and recovered by centrifugal operation. The number of the cells obtained was counted and diluted so as to contain 3×10^5 cells/1 mL of the medium. The dilution was dispensed in a Black welled 96-well plate (Coster) in 100 μL/well, followed by incubation overnight in a CO2 incubator. To the thus prepared CHO cells, various test samples were added and the changes in intracellular calcium level in this case were measured using FLIPR (Molecular Device). In order to determine the changes in the intracellular calcium ion level on FLIPR, the cells were pre-treated by the following procedures.
(§3) First, for the purpose of adding a fluorescent dye Fluo-3 AM (DOJIN) to the cells or washing the cells immediately before the FLIPR assay, an assay buffer was prepared. A solution obtained by adding 20 mL of 1M HEPES (pH 7.4) (DOJIN) to 1000 mL of HBSS (Invitrogen) was prepared (hereinafter HBSS/HEPES solution), to which 10 mL of a solution mixture obtained by dissolving 710 mg of Probenecid (Sigma) in 5 mL of 1N NaOH and further adding 5 mL of HBSS/HEPES solution was added. The resulting solution was used as the assay buffer. Next, 50 μg of Fluo-3AM was dissolved in 21 μL of DMSO (Wako) and an equal volume of 20% Pulronic acid (Molecular Probes) was added to and mixed with the solution. The mixture was then added to 10.6 mL of the assay buffer supplemented with 105 μL of fetal calf serum to prepare a fluorescent dye solution. […], the medium for the CHO cells again plated in a Black welled 96-well plate was removed. Immediately thereafter, the fluorescent dye solution was dispensed in 100 μL each/well and the cells were incubated in a CO2 incubator for an hour so that the fluorescent dye was taken up into the cells. The cells after the incubation was washed with the assay buffer described above and set on FLIPR. […] After the pre-treatment above was made, the changes in intracellular calcium level after the addition of various test samples were measured on FLIPR.
(Calcium assays in cells follow changes in intracellular calcium, usually with a dye or a luminescent sensor.)

Another data set deals with T2, Rat GPR40 (Rattus norvegicus, UniProt Q8K3T4).
T2 construct: expressed in transfected cells
In words: EC50 by FLIPR calcium assay in CHO cells stably expressing rat GPR40. It counts as cell-based. As to conditions: intracellular calcium, FLIPR, stable CHO line; read-out: EC50 Rat GPR40. The protocol: as §1, §2, §3

For another data set, the target named is T3, Mouse GPR40 (Mus musculus, UniProt Q76JU9).
T3 construct: expressed in transfected cells
In words: EC50 by FLIPR calcium assay in CHO cells stably expressing mouse GPR40. It counts as cell-based. As to conditions: intracellular calcium, FLIPR, stable CHO line; read-out: EC50 Mouse GPR40. The protocol: as §1, §2, §3

For data set [3], the system named is mouse GPR40-GFP fusion protein. In words: Expression of mouse GPR40-GFP fusion protein in CHO cells after siRNA introduction (enzyme immunoassay). It counts as cell-based. The settings on record: siRNA 2.86 pmols/0.5 μl or 8.57 pmols/1.5 μl, one day. Here is the method: Mouse GPR40-GFP fusion protein-expressed CHO cells prepared by publicly known methods were plated in a 96-well plate at a density of 3×10^4/well, followed by incubation for a day. The siRNA (Dharmacon, Inc.) having various sequences, which was prepared according to the report by Elbasir et al. (Nature 411 (6836), 494–498 (2001)) using HVJ Envelope VECTOR KIT GenomONE™ (Ishihara Sangyo Kaisha, LTD.), was introduced into the cells (in a concentration of 2.86 pmols/0.5 μl or 8.57 pmols/1.5 μl), incubation followed for further one day. The expression level of mouse GPR40-GFP was detected by enzyme immunoassay as shown below. After the culture supernatant was discarded and the cells were washed with HBSS (Invitrogen), the cells were immobilized on 0.01% glutaraldehyde (Wako Pure Chemical) for 5 minutes, followed by blocking with 2% BSA-containing PBS (Takara Shuzo). Anti-GFP monoclonal antibody 3E6 (Nippon Gene) diluted to 500-fold was added to the cells. After incubation at room temperature for 2 hours, the cells were washed and HRP-labeled anti-mouse IgG antibody (ICN) diluted to 500-fold was added thereto followed by incubation at room temperature for 2 hours. After washing, TMB Microwell peroxidase substrate (Funakoshi) was added to the cells. After incubation for 30 minutes, sulfuric acid was added to stop the color-forming reaction and absorbance was measured at 450 nm.

The subject of another data set is mouse GPR40 mRNA. The experiment in a line: Mouse GPR40 mRNA expression in MIN6 after siRNA introduction. The settings on record: 2 days after introduction; vs random sequence siRNA. The class given is cell-based. The protocol: MIN6 cells were plated in a 24-well plate and incubated for a day. Based on the method of EXAMPLE 18, m40i103 or Scramble II duplex siRNA, which was a random sequence siRNA, was then introduced using HVJ Envelope VECTOR KIT GenomONE. After incubation for 2 days, the total RNA of the same cells was prepared in a manner similar to EXAMPLE 7, using Isogen (Nippon Gene K. K.), following the manual attached. Using as a primer 100 ng of random hexamer based on 1 μg of the resulting total RNA, cDNA was synthesized using SuperScriptII reverse transcriptase (Invitrogen, Inc.), which was lysed in 40 μl of TE buffer (pH 8.0). The expression levels of mouse GPR40 and mouse GAPDH mRNA were determined by the method described in EXAMPLE 4.

T2 sequence (Q8K3T4 whole entry): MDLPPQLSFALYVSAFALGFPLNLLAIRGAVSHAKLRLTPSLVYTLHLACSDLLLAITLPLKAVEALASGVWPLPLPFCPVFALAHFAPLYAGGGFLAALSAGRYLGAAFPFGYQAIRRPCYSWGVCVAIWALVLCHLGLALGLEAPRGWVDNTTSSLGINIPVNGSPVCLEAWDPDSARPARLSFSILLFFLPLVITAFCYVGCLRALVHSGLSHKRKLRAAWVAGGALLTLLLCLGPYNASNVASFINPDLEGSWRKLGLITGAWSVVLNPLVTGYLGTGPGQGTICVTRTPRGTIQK
T1 sequence (O14842 whole entry, the tested form may be a part): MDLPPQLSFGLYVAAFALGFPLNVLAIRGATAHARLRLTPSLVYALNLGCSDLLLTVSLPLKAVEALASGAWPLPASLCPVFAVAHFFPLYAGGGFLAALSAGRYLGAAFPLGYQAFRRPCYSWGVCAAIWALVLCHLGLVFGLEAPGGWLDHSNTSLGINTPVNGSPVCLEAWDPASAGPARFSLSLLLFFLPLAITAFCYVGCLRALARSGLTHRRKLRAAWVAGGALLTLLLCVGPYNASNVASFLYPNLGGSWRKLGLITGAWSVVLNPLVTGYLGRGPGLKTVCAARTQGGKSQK
T3 sequence (Q76JU9 whole entry): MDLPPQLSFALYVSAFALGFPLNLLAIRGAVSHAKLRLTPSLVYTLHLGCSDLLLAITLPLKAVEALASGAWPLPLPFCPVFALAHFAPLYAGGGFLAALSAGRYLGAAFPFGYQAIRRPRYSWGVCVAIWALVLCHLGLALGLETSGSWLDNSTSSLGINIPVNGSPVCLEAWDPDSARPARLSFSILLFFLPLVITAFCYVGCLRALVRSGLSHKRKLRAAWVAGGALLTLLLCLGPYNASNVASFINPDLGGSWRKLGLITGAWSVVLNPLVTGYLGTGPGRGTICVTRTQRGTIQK

Turning to `COc1cccc(-c2cc(=O)c3ccccc3o2)c1N` [PD98059], the “effect on fatty acid-induced activation of MAPK in MIN6” value in data set [1] was “almost suppressed”.
The EC50 is the midpoint of the concentration-response curve. Consider `CCCCCCCCCCCCCCCC(=O)O` [Palmitic acid (C16), Palmitic acid], for which, in data set [2], the “insulin secretion by MIN6 cells” value is “promoted”. The concentration for a half-maximal effect (EC50) at human GPR40 worked out at 6.8 ± 0.5 µM; at Rat GPR40, 6.6 ± 0.4 µM; at Mouse GPR40, 4.6 ± 1.2 µM.
Turning to “m40i103: mouse GPR40-specific siRNA; sense strand SEQ ID NO: 34, antisense strand SEQ ID NO: 35 (sense CGCCAGUUGUGACAUUCUUNN; antisense NNGCGGUCAACACUGUAAGAA; chemistry not given here; one strand is listed 3' to 5')”, the “expression level of GPR40-GFP (absorbance at 450 nm)” value in data set [3] is given as “reduction in the expression level”. Besides, the “expression of GPR40 mRNA (GPR40/GAPDH) in MIN6” value in the data set with mouse GPR40 mRNA is on record as “decreased”.
In the case of “m40i256: mouse GPR40-specific siRNA; sense strand SEQ ID NO: 36, antisense strand SEQ ID NO: 37 (sense CUUGUUAGCCAUCCGAGGCNN; antisense NNGAACAATCGGTAGGCTCCG; chemistry not given here; one strand is listed 3' to 5')”, the “expression level of GPR40-GFP (absorbance at 450 nm)” value in data set [3] is “reduction in the expression level”.
